# How the values were obtained:
# [1] = system: antibodies in sera from SARS patients (sera 1a, 1b, 2, 6, 37, 62, London, SARS-yellow, SARS-green); assay type: binding, human; set-up: Binding of serum 6 to linear peptides of protein X1 of SARS-CoV Urbani / Binding of serum 37 to linear peptides of protein X1 of SARS-CoV Urbani / Binding of serum 6 to looped/cyclic peptide (PEPSCAN-ELISA) / Binding of serum 37 to looped/cyclic peptide (PEPSCAN-ELISA) / Binding of serum 37 to looped/cyclic peptides of protein X1 of SARS-CoV Urbani / Binding of serum 6 to linear peptides of protein X2 / Binding of serum 37 to linear peptides of protein X2 / Binding of serum 37 to looped/cyclic peptides of protein X2 of SARS-CoV Urbani / Binding of serum 6 to linear peptides of protein M of SARS-CoV Urbani / Binding of serum 37 to linear peptides of protein M of SARS-CoV Urbani / Binding of serum 6 to looped/cyclic peptides of protein M of SARS-CoV Urbani / Binding of serum 37 to looped/cyclic peptides of protein M of SARS-CoV Urbani / Binding of serum 6 to linear peptides of protein X3 of SARS-CoV Urbani / Binding of serum 37 to linear peptides of protein X3 of SARS-CoV Urbani / Binding of serum 37 to looped/cyclic peptides of protein X3 of SARS-CoV Urbani / Binding of serum 6 to linear peptides of protein X4 of SARS-CoV Urbani / Binding of serum 37 to linear peptides of protein X4 of SARS-CoV Urbani / Binding of serum 37 to looped/cyclic peptides of protein X4 of SARS-CoV Urbani / Binding of serum 6 to linear peptides of protein X5 of SARS-CoV Urbani / Binding of serum 37 to linear peptides of protein X5 of SARS-CoV Urbani / Binding of serum 37 to looped/cyclic peptides of protein X5 of SARS-CoV Urbani / Binding of serum 6 to linear peptides of protein N of SARS-CoV Urbani / Binding of serum 37 to linear peptides of protein N of SARS-CoV Urbani / Binding of serum 6 to linear peptide (PEPSCAN-ELISA) / Binding of serum 1a to looped/cyclic peptides of protein N of SARS-CoV Urbani / Binding of serum 1b to looped/cyclic peptides of protein N of SARS-CoV Urbani / Binding of serum 2 to looped/cyclic peptides of protein N of SARS-CoV Urbani / Binding of serum 6 to looped/cyclic peptides of protein N of SARS-CoV Urbani / Binding of serum 37 to looped/cyclic peptides of protein N of SARS-CoV Urbani / Binding of serum 62 to looped/cyclic peptides of protein N of SARS-CoV Urbani / Binding of serum London to looped/cyclic peptides of protein N of SARS-CoV Urbani / Binding of serum SARS-green to looped/cyclic peptides of protein N of SARS-CoV Urbani: unit not given here
# [2] = system: control sera (pooled serum of ten healthy LUMC hospital workers; commercial negative donor pooled serum from the Dutch bloodbank); assay type: binding, human; set-up: Binding of Control serum LUMC to linear peptides / Binding of Control serum Blood-bank to linear peptides / Binding of Control serum LUMC to looped peptides / Binding of Control Serum Blood-Bank to Looped peptides / Binding of Control serum LUMC to linear peptides of the protein M of SARS-CoV Urbani / Binding of Control serum Blood-bank to linear peptides of the protein M of SARS-CoV Urbani / Binding of Control serum LUMC to looped peptides of the protein M of SARS-CoV Urbani / Binding of Control Serum Blood-Bank to Looped peptides of the protein M of SARS-CoV Urbani: unit not given here
# [3] = system: rabbit serum obtained by immunizing a rabbit with the SARS-CoV strain Frankfurt 1; assay type: binding; set-up: Binding of a rabbit serum to linear peptides / Binding of a rabbit serum to looped peptides / Rabbit serum linear peptides / Rabbit serum looped peptides / Binding of a rabbit serum to linear peptides of protein N of SARS-CoV Urbani (Rabbit serum linear peptides) / Binding of a rabbit serum to looped/cyclic peptides of protein N of SARS-CoV Urbani (Rabbit serum looped peptides): unit not given here
sequence,measurement,setting,value
CINACRIIMRCWLCW,Binding of serum 1a to linear peptides of protein X1 of SARS-CoV Urbani,[1],0.8
same,Binding of serum 1a to looped/cyclic peptide (PEPSCAN-ELISA),[1],0.7
same,Binding of serum 1b to linear peptides of protein X1 of SARS-CoV Urbani,[1],0.5
same,Binding of serum 1b to looped/cyclic peptide (PEPSCAN-ELISA),[1],0.4
same,Binding of serum 2 to linear peptides of protein X1 of SARS-CoV Urbani,[1],0.5
same,Binding of serum 2 to looped/cyclic peptide (PEPSCAN-ELISA),[1],0.6
same,Binding of serum 6 to linear peptides of protein X1 of SARS-CoV Urbani,[1],0.7
same,Binding of serum 6 to looped/cyclic peptide (PEPSCAN-ELISA),[1],0.7
same,Binding of serum 37 to linear peptides of protein X1 of SARS-CoV Urbani,[1],0.6
same,Binding of serum 37 to looped/cyclic peptide (PEPSCAN-ELISA),[1],0.6
same,Binding of serum 62 to linear peptides of protein X1 of SARS-CoV Urbani,[1],0.7
same,Binding of serum 62 to looped/cyclic peptide (PEPSCAN-ELISA),[1],0.7
same,Binding of serum London to linear peptides of protein X1 of SARS-CoV Urbani,[1],0.4
same,Binding of serum London to looped/cyclic peptide (PEPSCAN-ELISA),[1],0.8
same,Binding of serum SARS-green to linear peptides of protein X1 of SARS-CoV Urbani,[1],0.2
same,Binding of serum SARS-green to looped/cyclic peptide (PEPSCAN-ELISA),[1],0.3
same,Binding of serum SARS-yellow to linear peptides of protein X1 of SARS-CoV Urbani,[1],0.4
same,Binding of serum SARS-yellow to looped/cyclic peptide (PEPSCAN-ELISA),[1],0.5
same,Binding of Control Serum Blood-Bank to Looped peptides,[2],0.8
same,Binding of Control serum Blood-bank to linear peptides,[2],0.7
same,Binding of Control serum LUMC to linear peptides,[2],0.8
same,Binding of Control serum LUMC to looped peptides,[2],0.7
same,Recognition of the peptide by the rabbit serum,[3],recognized
NLLLLFVTIYSHLLL,Binding of serum 1a to linear peptides of protein X1 of SARS-CoV Urbani,[1],0.7
same,Binding of serum 1a to looped/cyclic peptide (PEPSCAN-ELISA),[1],0.5
same,Binding of serum 1b to linear peptides of protein X1 of SARS-CoV Urbani,[1],0.5
same,Binding of serum 1b to looped/cyclic peptide (PEPSCAN-ELISA),[1],0.4
same,Binding of serum 2 to linear peptides of protein X1 of SARS-CoV Urbani,[1],0.5
same,Binding of serum 2 to looped/cyclic peptide (PEPSCAN-ELISA),[1],0.4
same,Binding of serum 6 to linear peptides of protein X1 of SARS-CoV Urbani,[1],0.4
same,Binding of serum 6 to looped/cyclic peptide (PEPSCAN-ELISA),[1],0.2
same,Binding of serum 37 to linear peptides of protein X1 of SARS-CoV Urbani,[1],0.5
same,Binding of serum 37 to looped/cyclic peptide (PEPSCAN-ELISA),[1],0.4
same,Binding of serum 62 to linear peptides of protein X1 of SARS-CoV Urbani,[1],0.4
same,Binding of serum 62 to looped/cyclic peptide (PEPSCAN-ELISA),[1],0.5
same,Binding of serum London to linear peptides of protein X1 of SARS-CoV Urbani,[1],0.2
same,Binding of serum London to looped/cyclic peptide (PEPSCAN-ELISA),[1],0.2
same,Binding of serum SARS-green to linear peptides of protein X1 of SARS-CoV Urbani,[1],0.1
same,Binding of serum SARS-green to looped/cyclic peptide (PEPSCAN-ELISA),[1],0.2
same,Binding of serum SARS-yellow to linear peptides of protein X1 of SARS-CoV Urbani,[1],0.3
same,Binding of serum SARS-yellow to looped/cyclic peptide (PEPSCAN-ELISA),[1],0.4
same,Binding of Control Serum Blood-Bank to Looped peptides,[2],0.5
same,Binding of Control serum Blood-bank to linear peptides,[2],0.4
same,Binding of Control serum LUMC to linear peptides,[2],0.5
same,Binding of Control serum LUMC to looped peptides,[2],0.6
same,Binding of a rabbit serum to linear peptides,[3],0.2
same,Binding of a rabbit serum to looped peptides,[3],0.6
QELYSPLFLIVAALV,Binding of serum 1a to linear peptides of protein X4 of SARS-CoV Urbani,[1],0.7
same,Binding of serum 1a to looped/cyclic peptides of protein X4 of SARS-CoV Urbani,[1],0.6
same,Binding of serum 1b to linear peptides of protein X4 of SARS-CoV Urbani,[1],0.5
same,Binding of serum 1b to looped/cyclic peptides of protein X4 of SARS-CoV Urbani,[1],0.4
same,Binding of serum 2 to linear peptides of protein X4 of SARS-CoV Urbani,[1],0.8
same,Binding of serum 2 to looped/cyclic peptides of protein X4 of SARS-CoV Urbani,[1],0.6
same,Binding of serum 6 to linear peptides of protein X4 of SARS-CoV Urbani,[1],0.6
same,Binding of serum 6 to looped/cyclic peptides of protein X4 of SARS-CoV Urbani,[1],0.3
same,Binding of serum 37 to linear peptides of protein X4 of SARS-CoV Urbani,[1],0.7
same,Binding of serum 37 to looped/cyclic peptides of protein X4 of SARS-CoV Urbani,[1],0.6
same,Binding of serum 62 to linear peptides of protein X4 of SARS-CoV Urbani,[1],0.7
same,Binding of serum 62 to looped/cyclic peptides of protein X4 of SARS-CoV Urbani,[1],0.6
same,Binding of serum London to linear peptides of protein X4 of SARS-CoV Urbani,[1],0.7
same,Binding of serum London to looped/cyclic peptides of protein X4 of SARS-CoV Urbani,[1],0.3
same,Binding of serum SARS-green to linear peptides of protein X4 of SARS-CoV Urbani,[1],0.5
same,Binding of serum SARS-green to looped/cyclic peptides of protein X4 of SARS-CoV Urbani,[1],0.6
same,Binding of serum SARS-yellow to linear peptides of protein X4 of SARS-CoV Urbani,[1],0.2
same,Binding of serum SARS-yellow to looped/cyclic peptides of protein X4 of SARS-CoV Urbani,[1],0.5
same,Binding of Control Serum Blood-Bank to Looped peptides,[2],0.7
same,Binding of Control serum Blood-bank to linear peptides,[2],0.6
same,Binding of Control serum LUMC to linear peptides,[2],0.6
same,Binding of Control serum LUMC to looped peptides,[2],0.7
same,Rabbit serum linear peptides,[3],0.4
same,Rabbit serum looped peptides,[3],0.5

# From patent publication US20070128217A1 (priority 2003, published 2007)
